“And” between values parts separate entries of the source, which are not always exact repeats. Equal entries are not always repeated. Where two headings read alike, the source gives them in different places.
Columns and labels:
[1] = test system: NQO1; assay: RT-qPCR PCR array mQPA-8-Nrf2, NQO1 expression in NHEK; format: cell-based, human; settings: basal conditions, 20 μM
Experimental: (§1) In the present study, the effects of compound L-Ergothioneine were investigated in normal human epidermal keratinocytes (NHEK) under basal or UV-irradiated conditions. More specifically, the effects of this compound were evaluated using RT-qPCR technology. Extracted mRNA was analyzed using a PCR array (“mQPA-8-Nrf2”) for the analysis of 8 target genes (including 1 housekeeping gene) selected for their role in Nrf2 pathway. Prior to this assay, a preliminary cytotoxicity assay was performed on compound L-Ergothioneine and Resveratrol (reference in basal condition) using a standard WST-8 reduction assay, in order to determine the concentrations to be tested in this study.
(§2) Cell type: Normal human epidermal keratinocytes (NHEK) used at the 3rd passage. Culture conditions: 37° C., 5% CO2. Culture medium: Keratinocyte-SFM optimized for the assay, supplemented with Epidermal Growth Factor Pituitary extract. Assay medium: Keratinocyte-SFM optimized for the assay. Test compound: L-Ergothioneine in ultrapure water. Test concentrations: 0.5, 3 and 30 μM. Reference: Resveratrol. Test concentration: 20 μM.
(§3) Keratinocytes were seeded in 24-well plates and cultured for 24 hours in culture medium and in assay medium for a further 24 hours. The medium was then replaced by assay medium containing or not (control) the compound or Resveratrol and cells were pre-incubated for 24 hours.
(§4) After pre-incubation, the medium was then removed and replaced by a PBS solution. For basal conditions, the plate was kept in the dark during the irradiation time. For irradiated conditions, the cells were irradiated with UVB−275 mJ/cm^2 (+UVA−2 J/cm^2) using a SOL500 Sun Simulator equipped with an H2 filter (Dr. Hönle, AG). After irradiation time, the treatments were renewed, and the cells were incubated for 24 hours. All experimental conditions were performed in n=3. At the end of incubation, the cells were washed in phosphate buffered saline (PBS) solution and immediately frozen at −80° C.
(§5) The expression of markers was analyzed using RT-qPCR method on total RNA extracted from the cell monolayers of each experimental condition (before RNA extraction, the replicates of the same experimental condition were pooled). The analysis of transcripts was performed in n=2 using a PCR array dedicated to research and adapted to ‘screening’ format and targeting 8 genes selected for their role in Nrf2 pathway.
(§6) Total RNA was extracted from each sample using TriPure Isolation Reagent® according to the supplier's instructions. The amount and quality of RNA were evaluated using capillary electrophoresis (Bioanalyzer 2100, Agilent technologies). The complementary DNA (cDNA) was synthetized by reverse transcription of total RNA in presence of oligo(dT) and «Transcriptor Reverse Transcriptase» (Roche Molecular System Inc.). The cDNA quantities were then adjusted before PCR.
(§7) The PCR (Polymerase Chain Reaction) were performed using the «LightCycler®» system (Roche Molecular System Inc.) according to the supplier's instructions. The reaction mix (10 μl final) was prepared as follows: 2.5 μl of cDNA; primers (forward and reverse); reagent mix (Roche) containing taq DNA polymerase, SYBR Green I and MgCl2.
(§8) The incorporation of fluorescence in amplified DNA was continuously measured during the PCR cycles. […] The value selected for RE calculations is the “output point” (Ct) of the fluorescence curve. For a considered marker, the highest is the cycle number; the lowest is the mRNA quantity. The RE value was calculated with the formula: (½^number of cycles)×10^6. The PCR array used in the present study included 1 reference gene (RPS28).

[2] = test system: TXNRD1; assay: RT-qPCR PCR array mQPA-8-Nrf2, TXNRD1 expression in NHEK; format: cell-based, human; settings: basal conditions, 20 μM
Experimental: as §1, §2, §3, §4, §5, §6, §7, §8

[3] = test system: TXN; assay: RT-qPCR PCR array mQPA-8-Nrf2, TXN expression in NHEK; format: cell-based, human; settings: basal conditions, 20 μM
Experimental: as §1, §2, §3, §4, §5, §6, §7, §8

[4] = test system: RPS28; assay: RT-qPCR PCR array mQPA-8-Nrf2, housekeeping gene RPS28; format: cell-based, human; settings: basal conditions, 20 μM
Experimental: as §1, §2, §3, §4, §5, §6, §7, §8

[5] = test system: GCLM; assay: RT-qPCR PCR array mQPA-8-Nrf2, GCLM expression in NHEK; format: cell-based, human; settings: basal conditions, 20 μM
Experimental: as §1, §2, §3, §4, §5, §6, §7, §8

[6] = test system: GCLC; assay: RT-qPCR PCR array mQPA-8-Nrf2, GCLC expression in NHEK; format: cell-based, human; settings: basal conditions, 20 μM
Experimental: as §1, §2, §3, §4, §5, §6, §7, §8

[7] = Preliminary cytotoxicity assay (WST-8 reduction, viability and morphological observations); format: cell-based, human; settings: human, normal human epidermal keratinocytes (NHEK)
Experimental: as §1, §2
(§9) Cell type: NHEK in assay medium. Incubation time: 24 hours.
(§10) After treatment, the cells were incubated with WST-8 (highly water-soluble tetrazolium salt) reduced in a water-soluble orange colored product (formazan) by succinate dehydrogenase (mitochondrial enzyme). This transformation is proportional to the number of living cells and their metabolic activity. The optical density (OD) of the extracts at 450 nm was recorded with a spectrometer (VERSAmax, Molecular Devices).

[8] = test system: normal human epidermal keratinocytes (NHEK); assay: as above; format: cell-based; settings: 24 hours; for Viability (%): single replicates
Experimental: as §1, §2, §9, §10

[9] = test system: Nrf2 pathway; assay: Gene expression profile of keratinocytes (mQPA-8-Nrf2 array as a whole); format: cell-based, human; settings: basal, tested at 20 μM
Experimental: as §1, §2, §3, §4, §5

[10] = test system: MT1G; assay: RT-qPCR PCR array mQPA-8-Nrf2, MT1G expression in NHEK; format: cell-based, human; settings: basal conditions, 20 μM
Experimental: as §1, §2, §3, §4, §5, §6, §7, §8

[11] = test system: HMOX1; assay: RT-qPCR PCR array mQPA-8-Nrf2, HMOX1 expression in NHEK; format: cell-based, human; settings: basal conditions, 20 μM
Experimental: as §1, §2, §3, §4, §5, §6, §7, §8

[12] = test system: NHEK; assay: Morphological observation of cells at the end of the culture, irradiated condition; format: cell-based, human
Experimental: as §3, §4

[13] = 24 hours of incubation, read-out: Viability Mean (%)
[14] = single replicates, 24 hours, read-out: Viability (%)

In the case of `Oc1ccc(C=Cc2cc(O)cc(O)c2)cc1` [Resveratrol], the “NQO1 % Control RPS28” value [1] is reported as 1468 % Control, the “TXNRD1 % Control RPS28” value [2] is reported as 492 % Control and the “TXN % Control RPS28” value [3] is reported as 345 % Control. For the same molecule, the “RPS28 % Control RPS28” value [4] was 100 % Control, the “GCLM % Control RPS28” value [5] was 736 % Control and the “GCLC % Control RPS28” value [6] was 554 % Control. The viability at 24 h, 0.247 µM [7, 13] was 99%, the viability at 24 h, 0.741 µM [7, 13] was 101% and the viability at 24 h, 2.2 µM [7, 13] was 106%. For the same molecule, the viability at 24 h, 6.7 µM [7, 13] was 106%, the viability at 24 h, 20 µM [7, 13] was 93% and the viability at 24 h, 60 µM [7, 13] was 65%. The viability at 24 h, 180 µM [7, 13] was 31%, the viability at 24 h, 540 µM [7, 13] was 8% and the viability at 24 h, 0.247 µM [7, 14] was 101%. It also gave a viability at 24 h, 0.741 µM [7, 14] of 102%, a viability at 24 h, 2.2 µM [7, 14] of 109% and a viability at 24 h, 6.7 µM [7, 14] of 109%. For the same molecule, the viability at 24 h, 20 µM [7, 14] was 97%, the viability at 24 h, 60 µM [7, 14] was 65% and the viability at 24 h, 180 µM [7, 14] was 32%. For the same molecule, the viability at 24 h, 540 µM [7, 14] was 8%, the Morphological observations ([8]; 0.247 μM) was “+” and the Morphological observations ([8]; 0.741 μM) was “+”. The Morphological observations ([8]; 2.2 μM) was “+”, the Morphological observations ([8]; 6.7 μM) was “+” and the Morphological observations ([8]; 20 μM) was “+”. The Morphological observations ([8]; 540 μM) was “−, *”, the “Viability (%)” value ([8]; 0.247 μM) was 98% and the “Viability (%)” value ([8]; 0.741 μM) was 100%. For the same molecule, the “Viability (%)” value ([8]; 2.2 μM) was 105%, the “Viability (%)” value ([8]; 6.7 μM) was 108% and the “Viability (%)” value ([8]; 20 μM) was 88%. The “Viability (%)” value ([8]; 60 μM) was 67% and 64%, the “Viability (%)” value ([8]; 180 μM) was 29% and the “Expression of genes involved in oxidative and cellular stress response” value [9] was “stimulation of the expression of all genes (except MT1G)”. The “MT1G % Control RPS28” value [10] was 79 % Control, the “HMOX1 % Control RPS28” value [11] was 451 % Control and the “Viability of NHEK under irradiated condition” value [12] was “strongly impacted”.

— patent US20250073210A1, “Use of Ergothioneine for Enhancing Glutathione Level” (priority 2022, published 2025)
